The source of these data is patent US20230131192A1, “1H-PYRAZOLO[4,3-d]PYRIMIDINE COMPOUNDS AS TOLL-LIKE RECEPTOR 7 (TLR7) AGONISTS” (BRISTOL-MYERS SQUIBB COMPANY, priority 2020, published 2023).

One experiment addresses T1, human TLR7 (Homo sapiens, UniProt Q9NYK1).
T1 construct: host or cells: HEK-Blue TLR7 cells (engineered human embryonic kidney cells)
T1 sequence (Q9NYK1 27-1049): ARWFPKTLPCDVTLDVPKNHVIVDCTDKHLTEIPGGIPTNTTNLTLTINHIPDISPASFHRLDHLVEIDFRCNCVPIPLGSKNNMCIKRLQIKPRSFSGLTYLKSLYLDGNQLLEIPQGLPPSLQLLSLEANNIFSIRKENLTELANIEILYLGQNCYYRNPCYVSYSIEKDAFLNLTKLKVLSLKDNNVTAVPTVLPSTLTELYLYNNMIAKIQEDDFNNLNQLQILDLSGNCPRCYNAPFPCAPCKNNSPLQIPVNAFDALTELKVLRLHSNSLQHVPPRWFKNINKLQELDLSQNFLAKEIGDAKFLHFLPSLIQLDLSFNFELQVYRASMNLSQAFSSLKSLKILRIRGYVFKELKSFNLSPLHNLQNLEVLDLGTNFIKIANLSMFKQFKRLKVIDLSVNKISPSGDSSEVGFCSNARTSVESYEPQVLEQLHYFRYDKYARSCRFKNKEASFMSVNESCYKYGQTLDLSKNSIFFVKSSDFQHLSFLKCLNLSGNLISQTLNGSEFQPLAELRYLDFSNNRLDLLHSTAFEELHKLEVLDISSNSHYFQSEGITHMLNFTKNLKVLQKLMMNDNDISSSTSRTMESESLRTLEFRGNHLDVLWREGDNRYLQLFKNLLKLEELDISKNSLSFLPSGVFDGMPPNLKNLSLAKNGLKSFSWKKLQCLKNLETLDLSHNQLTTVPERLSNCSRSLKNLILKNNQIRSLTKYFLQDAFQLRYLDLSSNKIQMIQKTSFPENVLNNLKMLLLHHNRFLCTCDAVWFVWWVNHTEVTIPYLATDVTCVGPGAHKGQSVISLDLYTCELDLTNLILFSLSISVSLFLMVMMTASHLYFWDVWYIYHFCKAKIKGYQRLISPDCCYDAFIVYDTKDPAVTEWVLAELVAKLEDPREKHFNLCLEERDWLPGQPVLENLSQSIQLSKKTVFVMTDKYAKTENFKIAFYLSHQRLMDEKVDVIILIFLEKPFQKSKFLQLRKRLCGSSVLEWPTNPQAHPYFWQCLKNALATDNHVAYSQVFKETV
The experiment is described as follows: Human TLR7 agonist (reporter) activity assay, HEK-Blue TLR7 cells, SEAP reporter. The class given is cell-based. The note with it: 18 h treatment, average where assay was performed multiple times, read-out: hTLR7 Agonism EC50. Here is the method: This procedure describes a method for assaying human TLR7 (hTLR7) agonist activity of the compounds disclosed in this specification.
HEK-Blue™ TLR7 cells were added to each well of a 384-well tissue-culture plate (15,000 cells per well) and incubated 16-18 h at 37° C., 5% CO2. Compounds (100 nl) were dispensed into wells containing the HEK-Blue™ TLR cells and the treated cells were incubated at 37° C., 5% CO2. After 18 h treatment ten microliters of freshly-prepared Quanti-Blue™ reagent (Invivogen) was added to each well, incubated for 30 min (37° C., 5% CO2) and SEAP levels measured using an Envision plate reader (OD=620 nm). The half maximal effective concentration values (EC50; compound concentration which induced a response halfway between the assay baseline and maximum) were calculated.

The subject of a further experiment is CD69. The experiment is described as follows: Induction of CD69 in human whole blood. The class given is cell-based. The conditions noted are these: 17 hrs, CD69 surface staining, 100% set to 1 uM of resiquimod, average where assay was performed multiple times, read-out: hWB CD69 EC50. Here is the method: The induction of Type I interferon (IFN) MX-1 genes and the B-cell activation marker CD69 are downstream events that occur upon activation of the TLR7 pathway. The following is a human whole blood assay that measures their induction in response to a TLR7 agonist.
Heparinized human whole blood was harvested from human subjects and treated with test TLR7 agonist compounds at 1 mM. The blood was diluted with RPMI 1640 media and Echo was used to predot 10 nL per well giving a final concentration of 1 uM (10 nL in 10 uL of blood). After mixing on a shaker for 30 sec, the plates were covered and placed in a 37° C. chamber for o/n=17 hrs. Fixing/lysis buffer was prepared (5×→1× in H2O, warm at 37° C.; Cat # BD 558049) and kept the perm buffer (on ice) for later use.
For surface markers staining (CD69): prepared surface Abs: 0.045 ul hCD14-FITC (ThermoFisher Cat # MHCD1401)+0.6 ul hCD19-ef450 (ThermoFisher Cat #48-0198-42)+1.5 ul hCD69-PE (cat # BD555531)+0.855 ul FACS buffer. Added 3 ul/well, spin1000 rpm for 1 min and mixed on shaker for 30 sec, put on ice for 30 mins. Stop stimulation after 30 minutes with 70 uL of prewarmed 1× fix/lysis buffer and use Feliex mate to resuspend (15 times, change tips for each plate) and incubate at 37 C for 10 minutes.
Centrifuge at 2000 rpm for 5 minutes aspirate with HCS plate washer, mix on shaker for 30 sec and then wash with 70 uL in dPBS and pelleted 2×s (2000 rpm for 5 min) and 50 ul wash in FACS buffer pelleted 1×s(2000 rpm for 5 min). Mix on shaker for 30 sec. For Intracellular markers staining (MX-1): Add 50 ul of BD Perm buffer III and mix on shaker for 30 sec. Incubate on ice for 30 minutes (in the dark). Wash with 50 uL of FACS buffer 2× (spin @2300 rpm×5 min after perm) followed by mixing on shaker for 30 sec. Resuspended in 20 ul of FACS buffer containing MX1 antibody ( )(4812)-Alexa 647: Novus Biologicals #NBP2-43704AF647) 20 ul FACS bf+0.8 ul hlgG+0.04 ul MX-1. Spin 1000 rpm for 1 min, mix on shaker for 30se and the samples were incubated at RT in the dark for 45 minutes followed by washing 2×FACS buffer (spin @2300 rpm×5 min after perm). Resuspend 20 ul (35 uL total per well) of FACS buffer and cover with foil and place in 4° C. to read the following day. Plates were read on iQuePlus. The results were loaded into toolset and […] curves are generated in curve master. The y-axis 100% is set to 1 uM of resiquimod.

One may read the EC50 as the midpoint of the concentration-response curve. `COc1cc(CO)ccc1Cn1ncc2nc(N)nc(NCc3cc(C)on3)c21` [Compound 101, {4-[(5-amino-7-{[(5-methyl-1,2-oxazol-3-yl)methyl]amino}-1H-pyrazolo[4,3-d]pyrimidin-1-yl)methyl]-3-methoxyphenyl}methanol]: the EC50 was determined as 354 nM on human TLR7 and 472 nM with CD69. Consider `COc1cc(CNC2CCC2)ccc1Cn1ncc2nc(N)nc(NCc3cc(C)on3)c21` [Compound 102, 1-({4-[(cyclobutylamino)methyl]-2-methoxyphenyl}methyl)-N7-[(5-methyl-1,2-oxazol-3-yl)methyl]-1H-pyrazolo[4,3-d]pyrimidine-5,7-diamine], for which the EC50 on human TLR7 was found to be 74.6 nM; with CD69, 25.8 nM. Take `COc1cc(CNC2CCOCC2)ccc1Cn1ncc2nc(N)nc(NCc3cc(C)on3)c21` [Compound 103, 1-[(2-methoxy-4-{[(oxan-4-yl)amino]methyl}phenyl)methyl]-N7-[(5-methyl-1,2-oxazol-3-yl)methyl]-1H-pyrazolo[4,3-d]pyrimidine-5,7-diamine]: the figures for the EC50 at human TLR7 and in the experiment with CD69 were 57.6 nM and 5.4 nM, respectively. In the same order, the values of `COc1cc(CN2CCN(C)CC2)ccc1Cn1ncc2nc(N)nc(NCc3cc(C)on3)c21` [Compound 104, 1-({2-methoxy-4-[(4-methylpiperazin-1-yl)methyl]phenyl}methyl)-N7-[(5-methyl-1,2-oxazol-3-yl)methyl]-1H-pyrazolo[4,3-d]pyrimidine-5,7-diamine] are 12.3 nM and 3.6 nM. On to `COc1cc(CN2CCN(CCO)CC2)ccc1Cn1ncc2nc(N)nc(NCc3cc(C)on3)c21` [Compound 105, 2-[4-({4-[(5-amino-7-{[(5-methyl-1,2-oxazol-3-yl)methyl]amino}-1H-pyrazolo[4,3-d]pyrimidin-1-yl)methyl]-3-methoxyphenyl}methyl)piperazin-1-yl]ethan-1-ol], for which the EC50 at human TLR7 stood at 23.4 nM. `COc1cc(CN2CC(OC)C2)ccc1Cn1ncc2nc(N)nc(NCc3cc(C)on3)c21` [Compound 106, 1-({2-methoxy-4-[(3-methoxyazetidin-1-yl)methyl]phenyl}methyl)-N7-[(5-methyl-1,2-oxazol-3-yl)methyl]-1H-pyrazolo[4,3-d]pyrimidine-5,7-diamine]: the figures for the EC50 on human TLR7 and in the experiment with CD69 were 57 nM and 9.5 nM, respectively. Taken in the same sequence, the figures for `COc1cc(CNC2CCC2)ccc1Cn1ncc2nc(N)nc(NCc3noc(C)n3)c21` [Compound 107, 1-({4-[(cyclobutylamino)methyl]-2-methoxyphenyl}methyl)-N7-[(5-methyl-1,2,4-oxadiazol-3-yl)methyl]-1H-pyrazolo[4,3-d]pyrimidine-5,7-diamine] were 46.6 nM and 5.9 nM.

With `COc1cc(CNC2CCOCC2)ccc1Cn1ncc2nc(N)nc(N[C@H](CO)CC3CC3)c21` [Compound 108, (2S)-2-({5-amino-1-[(2-methoxy-4-{[(oxan-4-yl)amino]methyl}phenyl)methyl]-1H-pyrazolo[4,3-d]pyrimidin-7-yl}amino)-3-cyclopropylpropan-1-ol], the EC50 at human TLR7 was 342 nM; in the experiment on CD69, 119 nM. Taken in the same sequence, the figures for `COc1cc(CNC2CCOCC2)ccc1Cn1ncc2nc(N)nc(NCC[C@H](O)C3CC3)c21` [Compound 109A, (1S)-3-({5-amino-1-[(2-methoxy-4-{[(oxan-4-yl)amino]methyl}phenyl)methyl]-1H-pyrazolo[4,3-d]pyrimidin-7-yl}amino)-1-cyclopropylpropan-1-ol] were 338 nM and 75.4 nM. In the same order, the values of `COc1cc(CNC2CCOCC2)ccc1Cn1ncc2nc(N)nc(NCC[C@@H](O)C3CC3)c21` [Compound 109b, (1R)-3-({5-amino-1-[(2-methoxy-4-{[(oxan-4-yl)amino]methyl}phenyl)methyl]-1H-pyrazolo[4,3-d]pyrimidin-7-yl}amino)-1-cyclopropylpropan-1-ol] are 1330 nM and 163 nM. Taken in the same sequence, the figures for `COc1cc(CN2CCN(S(C)(=O)=O)CC2)ccc1Cn1ncc2nc(N)nc(NCc3cc(C)on3)c21` [Compound 110, 1-({4-[(4-methanesulfonylpiperazin-1-yl)methyl]-2-methoxyphenyl}methyl)-N7-[(5-methyl-1,2-oxazol-3-yl)methyl]-1H-pyrazolo[4,3-d]pyrimidine-5,7-diamine] were 485 nM and 438 nM. Consider `COc1cc(CN2CCC(S(C)(=O)=O)CC2)ccc1Cn1ncc2nc(N)nc(NCc3cc(C)on3)c21` [Compound 111], for which the EC50 on human TLR7 was determined as 176 nM; in the experiment on CD69, 58.8 nM. In the case of `COc1cc(CO)ccc1Cn1ncc2nc(N)nc(NCc3noc(C)n3)c21` [Compound 116, {4-[(5-amino-7-{[(5-methyl-1,2,4-oxadiazol-3-yl)methyl]amino}-1H-pyrazolo[4,3-d]pyrimidin-1-yl)methyl]-3-methoxyphenyl}methanol], on human TLR7, the EC50 amounted to 729 nM. Same read-out and setting: with `COc1cc(CN2CCN(CCO)CC2)ccc1Cn1nc(C)c2nc(N)nc(NCc3noc(C)n3)c21` [Compound 132, 2-[4-({4-[(5-amino-3-methyl-7-{[(5-methyl-1,2,4-oxadiazol-3-yl)methyl]amino}-1H-pyrazolo[4,3-d]pyrimidin-1-yl)methyl]-3-methoxyphenyl}methyl)piperazin-1-yl]ethan-1-ol] the figure was 424 nM; with `COc1cc(CNC2CCOCC2)ccc1Cn1nc(C)c2nc(N)nc(NCc3noc(C)n3)c21` [Compound 133, 1-[(2-methoxy-4-{[(oxan-4-yl)amino]methyl}phenyl)methyl]-3-methyl-N7-[(5-methyl-1,2,4-oxadiazol-3-yl)methyl]-1H-pyrazolo[4,3-d]pyrimidine-5,7-diamine], 1110 nM. Regarding `COc1cc(CN2CCN(C)CC2)ccc1Cn1nc(C)c2nc(N)nc(NCc3noc(C)n3)c21` [Compound 134, 1-({2-methoxy-4-[(4-methylpiperazin-1-yl)methyl]phenyl}methyl)-3-methyl-N7-[(5-methyl-1,2,4-oxadiazol-3-yl)methyl]-1H-pyrazolo[4,3-d]pyrimidine-5,7-diamine], the EC50 at human TLR7 worked out at 159 nM.
